Laboratory results as given in patent US5104875A, “Combination preparations containing rifampicin and thioacetazon” (priority 1989, dated 1992).
Like-named read-outs stand apart in the source and are kept apart here.

What was measured:
[1] = test system: mycobacteria of the avium complex, patient Sa; experiment: MIC alone and in combination; assay type: cell-based; conditions: Homo sapiens, single
[2] = test system: mycobacteria of the avium complex, patient Me; experiment: MIC alone and in combination; assay type: cell-based; conditions: Homo sapiens, single
[3] = test system: mycobacteria of the avium complex, patient Ku; experiment: MIC alone and in combination; assay type: cell-based; conditions: Homo sapiens, single
[4] = test system: mycobacteria of the avium complex, patient Wi; experiment: MIC alone and in combination; assay type: cell-based; conditions: Homo sapiens, single
[5] = test system: mycobacteria of the avium complex, patient Vo; experiment: MIC alone and in combination; assay type: cell-based; conditions: Homo sapiens, single
[6] = test system: mycobacteria of the avium complex, patient Bi; experiment: MIC alone and in combination; assay type: cell-based; conditions: Homo sapiens, single
[7] = test system: mycobacteria of the avium complex, patient Ma; experiment: MIC alone and in combination; assay type: cell-based; conditions: Homo sapiens, single
[8] = test system: mycobacteria of the avium complex, patient Ka-B; experiment: MIC alone and in combination; assay type: cell-based; conditions: Homo sapiens, single
[9] = test system: mycobacteria of the avium complex, patient two; experiment: MIC alone and in combination; assay type: cell-based; conditions: Homo sapiens, single
[10] = test system: mycobacteria of the avium complex, patient one; experiment: MIC alone and in combination; assay type: cell-based; conditions: Homo sapiens, single
[11] = test system: M.tuberculosis H37Rv; experiment: chess-board titration, growth inhibition; assay type: cell-based
[12] = test system: RMP-resistant patient strain M. avium BK; experiment: chess-board titration, growth inhibition; assay type: cell-based;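 also: +++ means growth as in control and minus means complete inhibition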
[13] = test system: mycobacteria of the MOTT-complex; experiment: effect when administered alone; conditions: administered alone (cf. Example 2, Table 2 and Table 5)
[14] = test system: M. avium 227; experiment: MIC of the individual substances
Method: (§1) The bacteria were cultivated in a liquid nutrient medium according to Lockemann (cf. "Nachweisverfahren fur Mykobakterien aus Untersuchungsmaterial, III, Nahrbodenrezepte zur Kultur von Tuberkulosebakterien, 1978, Publisher: Deutsches Zentralkomitee zur Bekampfung der Tuberkulose, Poppenhusenstrasse 14c, 2000 Hamburg 60) enriched with 0.5 % albumin and 1 % human serum. In each case 5×10^-3 to 5 ×10^-5 mg, referred to the weight in wet state, of the mycobacteria strains were incubated in 2 ml of the culture liquid at 37° C. with graded concentrations of RMP and Thz. Readings were taken from the culture tubes after 8 to 15 days.
(§2) The MIC is the concentration of the growth inhibitor in μg/ml, at which no multiplication of the seeded cells can be established.

[15] = test system: M. avium Ro; experiment: MIC of the individual substances; conditions: for MIC: single substance
Method: as §1, §2

[16] = test system: M. avium Dan; experiment: MIC of the individual substances; conditions: for MIC: single substance
Method: as §1, §2

[17] = test system: M. avium Bi; experiment: MIC of the individual substances; conditions: single substance
Method: as §1, §2

[18] = test system: mycobacteria; conditions: administered alone in acceptable doses; cited from earlier work
[19] = higher doses; cited from earlier work
[20] = Mycobacterium avium, 227, read-out: average inhibiting concentration alone

CC[C@@H](CO)NCCN[C@@H](CC)CO [EMB, ethambutol]
MIC [1]: > 32 µg/mL
MIC [2]: 8 µg/mL
MIC [3]: > 32 µg/mL
MIC [4]: > 32 µg/mL
MIC [5]: 4 to 8 µg/mL
MIC [6]: 4 µg/mL
MIC [7]: 32 µg/mL
MIC [8]: > 32 µg/mL
MIC [9]: 16 to 32 µg/mL
MIC [10]: > 32 µg/mL

NNC(=O)c1ccncc1 [INH, isonicotinic acid hydrazide]
MIC [1]: 32 µg/mL
MIC [2]: 16 µg/mL
MIC [3]: 4 µg/mL
MIC [4]: 16 µg/mL
MIC [5]: 8 µg/mL
MIC [6]: > 32 µg/mL
MIC [7]: > 32 µg/mL
MIC [8]: 32 µg/mL
MIC [9]: 16 µg/mL
MIC [10]: 4 µg/mL

CO[C@H]1/C=C/O[C@@]2(C)Oc3c(C)c(O)c4c(O)c(c(/C=N/N5CCN(C)CC5)c(O)c4c3C2=O)NC(=O)/C(C)=C\C=C\[C@H](C)[C@H](O)[C@@H](C)[C@@H](O)[C@@H](C)[C@H](OC(C)=O)[C@@H]1C [RMP, rifampicin]
growth inhibition ([11]; Rifampicin .006 ug/ml, Thioacetazon 0): +++
growth inhibition ([11]; Rifampicin .012 ug/ml, Thioacetazon 0): +++
growth inhibition ([11]; Rifampicin .018 ug/ml, Thioacetazon 0): +++
growth inhibition ([11]; Rifampicin .024 ug/ml, Thioacetazon 0): +++
growth inhibition ([11]; Rifampicin .030 ug/ml, Thioacetazon 0): ++
growth inhibition ([11]; Rifampicin .036 ug/ml, Thioacetazon 0): +
growth inhibition ([11]; Rifampicin .042 ug/ml, Thioacetazon 0): +
growth inhibition ([11]; Rifampicin .048 ug/ml, Thioacetazon 0): +
growth inhibition ([11]; Rifampicin .054 ug/ml, Thioacetazon 0): -
growth inhibition ([11]; Rifampicin .06 ug/ml, Thioacetazon 0): -
growth inhibition ([12]; Rifampicin 0.8 ug/ml, Thioacetazon 0.000): +++
growth inhibition ([12]; Rifampicin 1.6 ug/ml, Thioacetazon 0.000): +++
growth inhibition ([12]; Rifampicin 2.4 ug/ml, Thioacetazon 0.000): ++
growth inhibition ([12]; Rifampicin 3.2 ug/ml, Thioacetazon 0.000): ++
growth inhibition ([12]; Rifampicin 4 ug/ml, Thioacetazon 0.000): -
growth inhibition ([12]; Rifampicin 4.8 ug/ml, Thioacetazon 0.000): -
growth inhibition ([12]; Rifampicin 5.4 ug/ml, Thioacetazon 0.000): -
growth inhibition ([12]; Rifampicin 6.4 ug/ml, Thioacetazon 0.000): -
growth inhibition ([12]; Rifampicin 7.2 ug/ml, Thioacetazon 0.000): -
growth inhibition ([12]; Rifampicin 8 ug/ml, Thioacetazon 0.000): -
MIC [1]: 8 µg/mL
MIC [2]: 16 µg/mL
MIC [3]: 32 µg/mL
MIC [4]: > 32 µg/mL
MIC [5]: 16 µg/mL
MIC [6]: 4 µg/mL
MIC [7]: > 32 µg/mL
MIC [8]: > 32 µg/mL
MIC [9]: 32 µg/mL
MIC [10]: > 32 µg/mL
effect against the mycobacteria of the MOTT-complex [13]: no effect or only a slight effect
MIC ([14]; M. avium 227, single substance): 8 µg/mL
MIC [14, 20]: 8 µg/mL
resistance [15]: completely resistant
MIC [15]: > 32 µg/mL
MIC [16]: 16 µg/mL
MIC [17]: 3 µg/mL

CC(=O)Nc1ccc(C=NNC(N)=S)cc1 [Thz, thioacetazon]
growth inhibition ([11]; Thioacetazon .05 ug/ml, Rifampicin 0): +++
growth inhibition ([11]; Thioacetazon .10 ug/ml, Rifampicin 0): +++
growth inhibition ([11]; Thioacetazon .15 ug/ml, Rifampicin 0): +++
growth inhibition ([11]; Thioacetazon .20 ug/ml, Rifampicin 0): +++
growth inhibition ([11]; Thioacetazon .25 ug/ml, Rifampicin 0): +++
growth inhibition ([11]; Thioacetazon .30 ug/ml, Rifampicin 0): +++
growth inhibition ([11]; Thioacetazon .35 ug/ml, Rifampicin 0): +++
growth inhibition ([11]; Thioacetazon .40 ug/ml, Rifampicin 0): + ++
growth inhibition ([11]; Thioacetazon .45 ug/ml, Rifampicin 0): +++
growth inhibition ([11]; Thioacetazon .50 ug/ml, Rifampicin 0): +++
growth inhibition ([12]; Thioacetazon 0.8 ug/ml, Rifampicin 0): +++
growth inhibition ([12]; Thioacetazon 1.6 ug/ml, Rifampicin 0): +++
growth inhibition ([12]; Thioacetazon 2.4 ug/ml, Rifampicin 0): ++
growth inhibition ([12]; Thioacetazon 3.2 ug/ml, Rifampicin 0): ++
growth inhibition ([12]; Thioacetazon 4 ug/ml, Rifampicin 0): ++
growth inhibition ([12]; Thioacetazon 4.8 ug/ml, Rifampicin 0): ++
growth inhibition ([12]; Thioacetazon 5.6 ug/ml, Rifampicin 0): +
growth inhibition ([12]; Thioacetazon 6.4 ug/ml, Rifampicin 0): +
growth inhibition ([12]; Thioacetazon 7.2 ug/ml, Rifampicin 0): +
growth inhibition ([12]; Thioacetazon 8 ug/ml, Rifampicin 0): +
MIC [1]: 32 µg/mL
MIC [2]: 32 µg/mL
MIC [3]: 32 µg/mL
MIC [4]: 32 µg/mL
MIC [5]: 32 µg/mL
MIC [6]: > 32 µg/mL
MIC [7]: > 32 µg/mL
MIC [8]: > 32 µg/mL
MIC [9]: 32 µg/mL
MIC [10]: 16 µg/mL
anti-mycobacterial effect [18]: only of weak effect
undesirable side-effects [19]: can lead to undesirable side-effects in higher doses
MIC ([14]; M. avium 227, single substance): 32 µg/mL
MIC [14, 20]: 32 µg/mL
resistance [15]: completely resistant
MIC [15]: > 32 µg/mL
resistance [16]: resistant
MIC [16]: > 32 µg/mL
MIC [17]: 3 µg/mL
